Reference: ChEMBL document CHEMBL1833834, “Clonal Rett Syndrome cell lines to test compounds for activation of wild-type MeCP2 expression” (Bioorg Med Chem Lett, 2011)
Calls of active or inactive are those of the source. The calls are words filed in the database; no cut-off is given here.

Tests used:
Assay type in all cases: functional, cell-based
[1] = Reactivation of MeCp2 […] expression in human GM11272 cells at 1 to 10000 nM by PCR method
[2] = Reactivation of MeCp2 […] expression in human GM11272 cells at 1 to 100 nM by PCR method
[3] = Reactivation of MeCp2 […] expression in human GM11272 cells at 10 to 100 nM by PCR method
[4] = Reactivation of MeCp2 […] expression in human GM11272 cells after 6 days by PCR method

Row | Compound | Activity [2] | Activity [4] | other results
1 | CCCC(CCC)C(=O)O |  |  | Activity [1]: inactive
2 | CC(/C=C/C(=O)NO)=C\[C@@H](C)C(=O)c1ccc(N(C)C)cc1 | inactive |  | 
3 | O=C(O)[C@H](Cc1c[nH]c2ccccc12)N1C(=O)c2ccccc2C1=O |  |  | Activity [3]: inactive
4 | O=c1ncccn1[C@@H]1O[C@H](CO)[C@@H](O)[C@H]1O | inactive |  | 
5 | O=C(CCCCCCC(=O)Nc1ccccc1)NO |  |  | Activity [3]: inactive
6 | CCC(=O)CCCCC[C@@H]1NC(=O)[C@H]2CCCCN2C(=O)[C@H]([C@@H](C)CC)NC(=O)[C@H](Cc2cn(OC)c3ccccc23)NC1=O |  | inactive | 
7 | Nc1ccccc1NC(=O)c1ccc(CNC(=O)OCc2cccnc2)cc1 |  | inactive | 
8 | Nc1ncn([C@H]2C[C@H](O)[C@@H](CO)O2)c(=O)n1 | inactive | inactive | 
9 | Cc1[nH]c2ccccc2c1CCNCc1ccc(/C=C/C(=O)NO)cc1 | inactive |  | 
